According to ChEMBL document CHEMBL1201862, “PubChem BioAssay data set” (2004):
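Step 1: Grow cells in 96-well plates. Step 2: Expose to compound for 48 hours at 5 concentrations. Step 3: Interpolate endpoints linearly; if unreached, use highest concentration. The concentration for 50% growth inhibition is given as GI50.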 The source made the active and inactive calls. Rule as the data show it: active = GI50 up to about 1.1 µM and inactive = higher.

Experiments:
Test in all cases: growth of human tumour cells (NCI), 48 h
SF-539 = system: SF-539
UACC-62 = system: UACC-62
MDA-N = system: MDA-N
HCC 2998 = system: HCC 2998
SK-OV-3 = system: SK-OV-3
RXF 393 = system: RXF 393
SF-295 = system: SF-295
HCT-15 = system: HCT-15
SK-MEL-28 = system: SK-MEL-28
EKVX = system: EKVX
HOP-92 = system: HOP-92
CAKI-1 = system: CAKI-1
BT-549 = system: BT-549
SNB-75 = system: SNB-75
SNB-19 = system: SNB-19
UO-31 = system: UO-31
ACHN = system: ACHN
SK-MEL-2 = system: SK-MEL-2
NCI-H460 = system: NCI-H460
RPMI-8226 = system: RPMI-8226

Compound | GI50 (SF-539) | GI50 (UACC-62) | GI50 (MDA-N) | GI50 (HCC 2998) | GI50 (SK-OV-3) | GI50 (RXF 393) | GI50 (SF-295) | GI50 (HCT-15) [µM] | GI50 (SK-MEL-28) | GI50 (EKVX) | GI50 (HOP-92) | GI50 (CAKI-1) | GI50 (BT-549) | GI50 (SNB-75) | GI50 (SNB-19) | GI50 (UO-31) | GI50 (ACHN) | GI50 (SK-MEL-2) | GI50 (NCI-H460) | GI50 (RPMI-8226)
O=C1CC(NC(=O)C(F)(F)F)c2c(Br)sc(N3CCNCC3)c21 (centres undefined) | > 100 µM (inactive) | > 100 µM (inactive) | > 100 µM (inactive) | > 100 µM (inactive) | > 100 µM (inactive) | > 100 µM (inactive) | > 100 µM (inactive) | > 100 | > 100 µM (inactive) | > 100 µM (inactive) | 53 µM (inactive) | > 100 µM (inactive) | > 100 µM (inactive) | > 100 µM (inactive) | > 100 µM (inactive) | 61.4 µM (inactive) | > 100 µM (inactive) | 13.2 µM (inactive) | > 100 µM (inactive) | –
COc1ccccc1/C=C/C1=NN(c2cccc(S(=O)(=O)O)c2)C2(C1)C(Cl)C(=O)N2c1nc2ccccc2s1 (centres undefined) | 58.2 µM (inactive) | 48.8 µM (inactive) | 85.3 µM (inactive) | > 91 µM (inactive) | > 100 µM (inactive) | 31.3 µM (inactive) | 89.3 µM (inactive) | 57.4 | > 100 µM (inactive) | 43.4 µM (inactive) | – | 31.8 µM (inactive) | 49.2 µM (inactive) | 42.8 µM (inactive) | > 84.7 µM (inactive) | 16.9 µM (inactive) | 57.3 µM (inactive) | > 100 µM (inactive) | 37.8 µM (inactive) | 19 µM (inactive)
COc1cc(O)c(C(=O)/C=C/c2ccc(O)cc2)cc1Oc1ccc(/C=C/C(=O)c2ccc(O)cc2O)cc1 [RHUSCHALCONE III] | 8.89 µM (inactive) | 8.61 µM (inactive) | 8.93 µM (inactive) | – | 8.36 µM (inactive) | 8.2 µM (inactive) | 10.1 µM (inactive) | 8.85 | 8.41 µM (inactive) | 13 µM (inactive) | 11.4 µM (inactive) | 14.2 µM (inactive) | 8.79 µM (inactive) | 12.6 µM (inactive) | 12.9 µM (inactive) | 9.48 µM (inactive) | 8.75 µM (inactive) | 10.1 µM (inactive) | 11.6 µM (inactive) | 6.79 µM (inactive)
COc1cc2c(cc1Cl)[n+]([O-])c(C#N)c(N1CCN(c3ccc([N+](=O)[O-])cc3)CC1)[n+]2[O-] | 10.8 µM (inactive) | 11.6 µM (inactive) | 24 µM (inactive) | 19.1 µM (inactive) | 23.9 µM (inactive) | 27 µM (inactive) | 12.4 µM (inactive) | 11.1 | 34.8 µM (inactive) | 28.6 µM (inactive) | – | 48.5 µM (inactive) | 15 µM (inactive) | 17.4 µM (inactive) | 32 µM (inactive) | 0.938 µM (active) | 14.7 µM (inactive) | 49.3 µM (inactive) | 7.78 µM (inactive) | 0.631 µM (active)
O=P1(O)c2ccccc2CSCc2ccccc21 | > 100 µM (inactive) | > 100 µM (inactive) | > 100 µM (inactive) | > 100 µM (inactive) | > 100 µM (inactive) | > 100 µM (inactive) | > 100 µM (inactive) | > 100 | > 100 µM (inactive) | > 100 µM (inactive) | > 100 µM (inactive) | > 100 µM (inactive) | > 100 µM (inactive) | – | > 100 µM (inactive) | > 100 µM (inactive) | > 100 µM (inactive) | > 100 µM (inactive) | > 100 µM (inactive) | –
CS(=O)(=O)OCOS(C)(=O)=O | > 100 µM (inactive) | > 100 µM (inactive) | > 100 µM (inactive) | > 100 µM (inactive) | > 100 µM (inactive) | – | > 100 µM (inactive) | 59.3 | > 100 µM (inactive) | > 100 µM (inactive) | > 100 µM (inactive) | 69 µM (inactive) | > 100 µM (inactive) | – | > 100 µM (inactive) | > 100 µM (inactive) | 58.9 µM (inactive) | > 100 µM (inactive) | 39.8 µM (inactive) | 31.9 µM (inactive)
O=C1C(O)=C(C(C2=C(O)C(=O)c3ccccc3C2=O)c2ccc(Cl)cc2)C(=O)c2ccccc21 | 18 µM (inactive) | 9.75 µM (inactive) | 1.83 µM (inactive) | – | 17.7 µM (inactive) | 7.13 µM (inactive) | 5.78 µM (inactive) | 9.12 | 28.1 µM (inactive) | 13.6 µM (inactive) | 14.3 µM (inactive) | 9.4 µM (inactive) | 15.6 µM (inactive) | 2.5 µM (inactive) | 19.5 µM (inactive) | 10.1 µM (inactive) | 6.46 µM (inactive) | 8.36 µM (inactive) | 14 µM (inactive) | 9.86 µM (inactive)
Cc1ccc2c(c1)[nH]c(=S)n2C=C(C(N)=O)C(N)=O | > 100 µM (inactive) | > 100 µM (inactive) | > 100 µM (inactive) | > 100 µM (inactive) | > 100 µM (inactive) | > 100 µM (inactive) | > 100 µM (inactive) | > 100 | > 100 µM (inactive) | 33.3 µM (inactive) | > 100 µM (inactive) | > 100 µM (inactive) | > 100 µM (inactive) | > 100 µM (inactive) | > 100 µM (inactive) | > 100 µM (inactive) | > 100 µM (inactive) | > 100 µM (inactive) | > 100 µM (inactive) | –
COc1cc2cc(C(=O)N3CC(CCl)c4c3cc(NC(=O)C(C)Nc3c([N+](=O)[O-])cc(C(=O)NCCN(C)C)cc3[N+](=O)[O-])c3ccccc43)[nH]c2c(OC)c1OC (centres undefined) | 0.0331 µM (active) | 0.0586 µM (active) | 0.158 µM (active) | 0.0315 µM (active) | 0.21 µM (active) | – | 0.129 µM (active) | 0.164 | 0.123 µM (active) | 0.229 µM (active) | 0.0285 µM (active) | 0.22 µM (active) | 0.187 µM (active) | 0.0272 µM (active) | 0.14 µM (active) | 0.451 µM (active) | 0.032 µM (active) | 0.0675 µM (active) | 0.0157 µM (active) | –
O=C(O)[C@@H]1CSCN1C(=O)[C@@H]1CCC(=S)N1 | > 100 µM (inactive) | > 10 µM (inactive) | > 100 µM (inactive) | > 100 µM (inactive) | > 100 µM (inactive) | > 100 µM (inactive) | > 100 µM (inactive) | > 100 | > 100 µM (inactive) | – | – | > 100 µM (inactive) | > 100 µM (inactive) | > 100 µM (inactive) | > 100 µM (inactive) | > 100 µM (inactive) | > 100 µM (inactive) | > 100 µM (inactive) | > 100 µM (inactive) | > 100 µM (inactive)
COc1cc(CNC2=NCCC2)cc(OC)c1OC | > 100 µM (inactive) | > 100 µM (inactive) | 34.5 µM (inactive) | > 100 µM (inactive) | > 100 µM (inactive) | > 100 µM (inactive) | > 100 µM (inactive) | > 100 | > 100 µM (inactive) | 56.1 µM (inactive) | > 100 µM (inactive) | > 100 µM (inactive) | > 100 µM (inactive) | > 100 µM (inactive) | > 100 µM (inactive) | > 100 µM (inactive) | > 100 µM (inactive) | – | > 100 µM (inactive) | –
Cc1cc(Cc2c(F)c(F)c(Cc3cc(C)no3)c(F)c2F)on1 | 47.6 µM (inactive) | > 100 µM (inactive) | > 100 µM (inactive) | – | 38.5 µM (inactive) | 33 µM (inactive) | 39.9 µM (inactive) | > 100 | > 100 µM (inactive) | > 100 µM (inactive) | 29 µM (inactive) | 12.2 µM (inactive) | > 100 µM (inactive) | 29 µM (inactive) | 36.7 µM (inactive) | > 100 µM (inactive) | > 100 µM (inactive) | 32.7 µM (inactive) | – | > 100 µM (inactive)
COc1cccc(/N=N/C(=NNC(=O)c2ccc(C)cc2)c2ccc(N(C)C)cc2)c1 | > 100 µM (inactive) | – | 39.7 µM (inactive) | > 100 µM (inactive) | > 100 µM (inactive) | – | > 100 µM (inactive) | > 100 | > 100 µM (inactive) | > 100 µM (inactive) | > 100 µM (inactive) | > 100 µM (inactive) | > 100 µM (inactive) | – | > 100 µM (inactive) | > 100 µM (inactive) | > 100 µM (inactive) | > 100 µM (inactive) | > 100 µM (inactive) | > 100 µM (inactive)
CNC(=O)OCCN1c2ccccc2Sc2ccccc21 | > 100 µM (inactive) | 4.99 µM (inactive) | > 100 µM (inactive) | > 100 µM (inactive) | > 100 µM (inactive) | 19.2 µM (inactive) | 60.8 µM (inactive) | > 100 | > 100 µM (inactive) | 17.1 µM (inactive) | 50.4 µM (inactive) | 36.4 µM (inactive) | > 100 µM (inactive) | – | > 100 µM (inactive) | 69.2 µM (inactive) | 73.6 µM (inactive) | – | 86.7 µM (inactive) | –
ClCCCC1COc2ccccc2O1 (centres undefined) | > 100 µM (inactive) | 98.6 µM (inactive) | > 100 µM (inactive) | > 100 µM (inactive) | 8.81 µM (inactive) | > 100 µM (inactive) | > 100 µM (inactive) | > 100 | > 100 µM (inactive) | > 100 µM (inactive) | 43.6 µM (inactive) | > 100 µM (inactive) | 23.1 µM (inactive) | > 100 µM (inactive) | > 100 µM (inactive) | > 100 µM (inactive) | > 100 µM (inactive) | – | > 100 µM (inactive) | –
